From patent US6740641B2 (priority 2001, dated 2004)
Read-outs that look alike come from different tables or passages of the source.

Experiments:
Test in all cases: biochemical
[1] = target: T1, recombinant delta opiod receptor expressed in CHO-K1 cells (Homo sapiens, UniProt P41143); settings: 0.2 nM [3H]-naltrindole, Table 1; read-out: Delta-Receptor Binding Affinity Ki
T1 construct: purchased Receptor Biology Inc., Beltsville, Md; host or cells: CHO-K1

[2] = target: T2, recombinant kappa opiod receptor expressed in HEK 293 cells (Homo sapiens, UniProt P41145); type: binding
T2 construct: purchased Receptor Biology Inc; host or cells: HEK 293
T2 sequence (P41145 whole entry): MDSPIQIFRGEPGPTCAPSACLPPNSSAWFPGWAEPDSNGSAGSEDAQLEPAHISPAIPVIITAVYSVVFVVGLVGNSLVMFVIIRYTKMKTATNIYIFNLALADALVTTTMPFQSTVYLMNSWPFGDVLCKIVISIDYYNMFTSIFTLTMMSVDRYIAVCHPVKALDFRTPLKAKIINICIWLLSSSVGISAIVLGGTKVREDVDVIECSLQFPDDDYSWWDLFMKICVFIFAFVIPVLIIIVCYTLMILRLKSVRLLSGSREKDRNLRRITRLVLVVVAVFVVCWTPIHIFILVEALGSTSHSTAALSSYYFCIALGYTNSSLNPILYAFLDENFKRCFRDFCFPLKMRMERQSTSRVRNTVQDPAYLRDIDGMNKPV

[3] = target: T3, recombinant mu-opioid receptor expressed in CHO-K1 cells (Homo sapiens, UniProt P35372); type: binding; settings: for selectivity for mu opioid receptors relative to delta and kappa opioid receptors: from Ki data of Table 4
T3 construct: purchased Receptor Biology Inc; host or cells: CHO-K1
T3 sequence (P35372 whole entry): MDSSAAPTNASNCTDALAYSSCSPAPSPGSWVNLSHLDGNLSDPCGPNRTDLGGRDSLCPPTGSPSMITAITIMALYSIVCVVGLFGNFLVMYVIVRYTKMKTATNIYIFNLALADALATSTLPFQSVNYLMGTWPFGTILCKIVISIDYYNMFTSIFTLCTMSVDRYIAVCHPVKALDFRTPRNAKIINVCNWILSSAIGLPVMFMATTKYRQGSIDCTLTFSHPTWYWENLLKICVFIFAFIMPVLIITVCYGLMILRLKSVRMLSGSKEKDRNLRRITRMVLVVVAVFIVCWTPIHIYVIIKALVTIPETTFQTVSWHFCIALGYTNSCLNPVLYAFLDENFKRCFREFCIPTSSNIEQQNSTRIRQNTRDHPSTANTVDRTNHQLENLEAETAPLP

[4] = 0.15 nM [3H]-bremazocine, Table 2, read-out: Kappa-Receptor Binding Affinity Ki
[5] = 0.2 nM [3H]-diprenorphine, Table 3, read-out: Mu-Receptor Binding Affinity Ki

T1 sequence (P41143 whole entry): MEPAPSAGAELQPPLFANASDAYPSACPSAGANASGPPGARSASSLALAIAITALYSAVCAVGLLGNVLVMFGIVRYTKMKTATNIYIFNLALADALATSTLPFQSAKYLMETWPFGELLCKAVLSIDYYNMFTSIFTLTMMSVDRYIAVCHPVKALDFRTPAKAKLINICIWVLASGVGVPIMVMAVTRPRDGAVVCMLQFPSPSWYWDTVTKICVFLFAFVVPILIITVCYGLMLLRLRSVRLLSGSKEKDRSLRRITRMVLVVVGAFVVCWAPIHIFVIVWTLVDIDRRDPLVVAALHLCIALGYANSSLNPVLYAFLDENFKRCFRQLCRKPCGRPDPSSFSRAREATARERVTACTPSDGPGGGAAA

Compound	Ki [1] [nM]	Ki [2, 4] [nM]	mu selectivity compared with morphine sulfate [3]	Ki [3, 5] [nM]	selectivity for mu opioid receptors relative to delta and kappa opioid receptors [3]	Ki [3] [nM]	Ki [2] [nM]
CN1CCC23c4c5ccc(O)c4O[C@H]2[C@H](OC2OC(CO)C(O)C(O)C2O)CCC3C1C5 (stereo partly drawn) [Dihydroisomorphine-6-glucoside, 6-O-Glucosyldihydroisomorphine]	868	440	higher than that of morphine sulfate	4.7	high selectivity for mu opioid receptors		
CN1CC[C@]23c4c5ccc(O)c4O[C@H]2[C@@H](O)CC[C@H]3[C@H]1C5 [Dihydromorphine, reference compound]						0.39	
CN1CC[C@]23c4c5ccc(OC6O[C@H](CO)[C@@H](O)[C@H](O)[C@H]6O)c4O[C@H]2C(=O)CC[C@H]3[C@H]1C5 (stereo partly drawn) [Hydromorphone-3-glucoside, 3-O-Glucosylhydromorphone]	4500	2400	higher than that of morphine sulfate	51	high selectivity for mu opioid receptors		
Oc1ccc2c3c1O[C@H]1c4oc5ccccc5c4C[C@@]4(O)[C@@H](C2)N(CC2CC2)CC[C@]314 [Naltriben, reference compound]							2.4
